# According to patent US11104619B2, “Mixture for treating fertilizers containing urea” (EuroChem Agro GmbH, priority 2015, dated 2021):
# Read-outs that look alike come from different tables or passages of the source.
# What was measured:
# [1] = tested on: nitrification; test: Soil incubation trial: nitrate formed from applied urea N; conditions: Filder loam, 20° C., label gives UI/NI fraction of recommended rate
# Description: % of the urea applied (13 mg N)
# [2] = tested on: urease; conditions: for Ammonia emission, % of the urea applied (77 mg N): Filder loam, 20° C., label gives UI/NI fraction of recommended rate
# Description: Screening trials were conducted to evaluate the effect of DMPSA and NBPT in the inhibition of urease and inhibition of nitrification, and to find suitable quantities for use. Serving for this purpose was a two-factorial trial design including an unfertilized control sample. For the urease inhibitor NBPT and for the nitrification inhibitor DMPSA, in each case 0%, 33%, 66% and 100% of the application rates recommended for the individual compounds when used alone were used (in this example, 0.6 g of NBPT per kg of urea and, respectively, 3.6 g of DMPSA per kg of urea), giving 16 trials (0%-0% to 100%-100%), in addition to the unfertilized control sample.
# Urea fertilizer was delivered in an amount of 200 kg nitrogen per ha, corresponding to 0.51 mg of urea nitrogen per g of soil. The soil used was Filder loam with a pH of 6.8. The incubation trials were carried out at 20° C. For the investigation of trace gases, air supply was passed first through a gas sample, then through a 250 ml capacity glass bottle containing 150 g of soil, subsequently through a gas sample for the outgoing air and through an acid trap, in order, for example, to determine amounts of ammonia. For the measurement of nitrogen, about 20 g of soil were incubated; for the measurement of urea, about 5 g of soil.
# [3] = tested on: urease; test: Screening trials: hydrolysis of urea in soil; conditions: first few days of application; with DMPSA present
# [4] = tested on: nitrification; test: Soil incubation trial: cumulative laughing gas (N2O-N) emission; conditions: 77 mg N applied; for N2O—N cumulative, % of appl.: cumulative over 28 days
# [5] = tested on: nitrification; test: Soil incubation trial: recovery of applied urea N as ammonium; conditions: for percentage recovery in the form of ammonium, % of applied urea (13 mg N): 28 days after application, Filder loam pH 6.8, 20° C., 200 kg urea N/ha, label gives UI/NI fraction of recommended rate (0.6 g NBPT, 3.6 g DMPSA per kg urea)
# Description: % of applied urea (13 mg N)
# A determination was carried out 28 days after application of the urea, with the percentage recovery in the form of ammonium being reported.
smiles,measurement,setting,value
"CCCCNP(N)(N)=S [NBPT, N-(n-butyl)thiophosphoric triamide]","Nitrate, % of the urea applied (13 mg N)","[1]; 5 days after application, listed as UI 1 NI 0",11%
same,"Nitrate, % of the urea applied (13 mg N)","[1]; 5 days after application, listed as UI ⅓ NI 0",10%
same,"Nitrate, % of the urea applied (13 mg N)","[1]; 5 days after application, listed as UI ⅔ NI 0",11%
same,"Nitrate, % of the urea applied (13 mg N)","[1]; 28 days after application, listed as UI 1 NI 0",52%
same,"Nitrate, % of the urea applied (13 mg N)","[1]; 28 days after application, listed as UI ⅓ NI 0",58%
same,"Nitrate, % of the urea applied (13 mg N)","[1]; 28 days after application, listed as UI ⅔ NI 0",64%
same,reduction in ammonia emissions,"[2]; 66% NBPT, especially 9 days after application",notable and almost complete reduction in ammonia emissions
same,"Ammonia emission, % of the urea applied (77 mg N)","[2]; 4 days after application, listed as UI 1 NI 0",0.0%
same,"Ammonia emission, % of the urea applied (77 mg N)","[2]; 4 days after application, listed as UI ⅓ NI 0",0.3%
same,"Ammonia emission, % of the urea applied (77 mg N)","[2]; 4 days after application, listed as UI ⅔ NI 0",0.1%
same,"Ammonia emission, % of the urea applied (77 mg N)","[2]; 9 days after application, listed as UI 1 NI 0",0.0%
same,"Ammonia emission, % of the urea applied (77 mg N)","[2]; 9 days after application, listed as UI ⅓ NI 0",1.1%
same,"Ammonia emission, % of the urea applied (77 mg N)","[2]; 9 days after application, listed as UI ⅔ NI 0",0.2%
same,effect on the increase in ammonia emission caused by the nitrification inhibitor,[2]; addition of NBPT,prevent the increase in ammonia emission
same,inhibition of the hydrolysis of urea,[3],sufficiently inhibits the hydrolysis of urea
same,N2O—N cumulative,"[4]; 0 days after appl., 150 g soil",0 μg N2O—N Bottle^1
same,N2O—N cumulative,[4]; 0.5 days after appl.,0 μg N2O—N Bottle^1
same,N2O—N cumulative,"[4]; 1 day after appl., listed as UI-1_NI-0",2 μg N2O—N Bottle^1
same,N2O—N cumulative,"[4]; 1 day after appl., listed as UI-2_NI-0",1 μg N2O—N Bottle^1
same,N2O—N cumulative,"[4]; 1 day after appl., listed as UI-3_NI-0",2 μg N2O—N Bottle^1
same,N2O—N cumulative,"[4]; 2 days after appl., listed as UI-1_NI-0",3 μg N2O—N Bottle^1
same,N2O—N cumulative,"[4]; 2 days after appl., listed as UI-2_NI-0",2 μg N2O—N Bottle^1
same,N2O—N cumulative,"[4]; 2 days after appl., listed as UI-3_NI-0",7 μg N2O—N Bottle^1
same,N2O—N cumulative,"[4]; 3 days after appl., listed as UI-1_NI-0",4 μg N2O—N Bottle^1
same,N2O—N cumulative,"[4]; 3 days after appl., listed as UI-2_NI-0",3 μg N2O—N Bottle^1
same,N2O—N cumulative,"[4]; 3 days after appl., listed as UI-3_NI-0",10 μg N2O—N Bottle^1
same,N2O—N cumulative,"[4]; 4 days after appl., listed as UI-1_NI-0",5 μg N2O—N Bottle^1
same,N2O—N cumulative,"[4]; 4 days after appl., listed as UI-2_NI-0",3 μg N2O—N Bottle^1
same,N2O—N cumulative,"[4]; 4 days after appl., listed as UI-3_NI-0",11 μg N2O—N Bottle^1
same,N2O—N cumulative,"[4]; 5 days after appl., listed as UI-1_NI-0",7 μg N2O—N Bottle^1
same,N2O—N cumulative,"[4]; 5 days after appl., listed as UI-2_NI-0",4 μg N2O—N Bottle^1
same,N2O—N cumulative,"[4]; 5 days after appl., listed as UI-3_NI-0",12 μg N2O—N Bottle^1
same,N2O—N cumulative,"[4]; 6 days after appl., listed as UI-1_NI-0",16 μg N2O—N Bottle^1
same,N2O—N cumulative,"[4]; 6 days after appl., listed as UI-2_NI-0",8 μg N2O—N Bottle^1
same,N2O—N cumulative,"[4]; 6 days after appl., listed as UI-3_NI-0",13 μg N2O—N Bottle^1
same,N2O—N cumulative,"[4]; 8 days after appl., listed as UI-1_NI-0",32 μg N2O—N Bottle^1
same,N2O—N cumulative,"[4]; 8 days after appl., listed as UI-2_NI-0",16 μg N2O—N Bottle^1
same,N2O—N cumulative,"[4]; 8 days after appl., listed as UI-3_NI-0",20 μg N2O—N Bottle^1
same,N2O—N cumulative,"[4]; 10 days after appl., listed as UI-1_NI-0",48 μg N2O—N Bottle^1
same,N2O—N cumulative,"[4]; 10 days after appl., listed as UI-2_NI-0",36 μg N2O—N Bottle^1
same,N2O—N cumulative,"[4]; 10 days after appl., listed as UI-3_NI-0",31 μg N2O—N Bottle^1
same,N2O—N cumulative,"[4]; 12 days after appl., listed as UI-1_NI-0",75 μg N2O—N Bottle^1
same,N2O—N cumulative,"[4]; 12 days after appl., listed as UI-2_NI-0",67 μg N2O—N Bottle^1
same,N2O—N cumulative,"[4]; 12 days after appl., listed as UI-3_NI-0",52 μg N2O—N Bottle^1
same,N2O—N cumulative,"[4]; 14 days after appl., listed as UI-1_NI-0",122 μg N2O—N Bottle^1
same,N2O—N cumulative,"[4]; 14 days after appl., listed as UI-2_NI-0",125 μg N2O—N Bottle^1
same,N2O—N cumulative,"[4]; 14 days after appl., listed as UI-3_NI-0",90 μg N2O—N Bottle^1
same,N2O—N cumulative,"[4]; 17 days after appl., listed as UI-1_NI-0",144 μg N2O—N Bottle^1
same,N2O—N cumulative,"[4]; 17 days after appl., listed as UI-2_NI-0",145 μg N2O—N Bottle^1
same,N2O—N cumulative,"[4]; 17 days after appl., listed as UI-3_NI-0",99 μg N2O—N Bottle^1
same,N2O—N cumulative,"[4]; 18 days after appl., listed as UI-1_NI-0",179 μg N2O—N Bottle^1
same,N2O—N cumulative,"[4]; 18 days after appl., listed as UI-2_NI-0",190 μg N2O—N Bottle^1
same,N2O—N cumulative,"[4]; 18 days after appl., listed as UI-3_NI-0",125 μg N2O—N Bottle^1
same,N2O—N cumulative,"[4]; 20 days after appl., listed as UI-1_NI-0",203 μg N2O—N Bottle^1
same,N2O—N cumulative,"[4]; 20 days after appl., listed as UI-2_NI-0",215 μg N2O—N Bottle^1
same,N2O—N cumulative,"[4]; 20 days after appl., listed as UI-3_NI-0",141 μg N2O—N Bottle^1
same,N2O—N cumulative,"[4]; 22 days after appl., listed as UI-1_NI-0",238 μg N2O—N Bottle^1
same,N2O—N cumulative,"[4]; 22 days after appl., listed as UI-2_NI-0",249 μg N2O—N Bottle^1
same,N2O—N cumulative,"[4]; 22 days after appl., listed as UI-3_NI-0",156 μg N2O—N Bottle^1
same,N2O—N cumulative,"[4]; 24 days after appl., listed as UI-1_NI-0",343 μg N2O—N Bottle^1
same,N2O—N cumulative,"[4]; 24 days after appl., listed as UI-2_NI-0",312 μg N2O—N Bottle^1
same,N2O—N cumulative,"[4]; 24 days after appl., listed as UI-3_NI-0",174 μg N2O—N Bottle^1
same,N2O—N cumulative,"[4]; 28 days after appl., listed as UI-1_NI-0",497 μg N2O—N Bottle^1
same,N2O—N cumulative,"[4]; 28 days after appl., listed as UI-2_NI-0",397 μg N2O—N Bottle^1
same,N2O—N cumulative,"[4]; 28 days after appl., listed as UI-3_NI-0",194 μg N2O—N Bottle^1
same,"N2O—N cumulative, % of appl.",[4]; listed as UI-1_NI-0,0.65 % of appl.
same,"N2O—N cumulative, % of appl.",[4]; listed as UI-2_NI-0,0.52 % of appl.
same,"N2O—N cumulative, % of appl.",[4]; listed as UI-3_NI-0,0.25 % of appl.
same,"percentage recovery in the form of ammonium, % of applied urea (13 mg N)",[5]; listed as UI 1 NI 0,28%
same,"percentage recovery in the form of ammonium, % of applied urea (13 mg N)",[5]; listed as UI ⅓ NI 0,9%
same,"percentage recovery in the form of ammonium, % of applied urea (13 mg N)",[5]; listed as UI ⅔ NI 0,21%
same,supplementary influence on ammonium recovery,[5]; after 28 days,no supplementary influence
